The values below are quoted from earlier work in patent US7442709B2, “N3-substituted imidazopyridine c-Kit inhibitors” (OSI Pharmaceuticals, Inc., priority 2003, dated 2008).

Structures can show the parent of a compound that is named as a salt.

The test system of data set [1] is MO7e human leukemia cells. Conditions: GM-CSF stimulation.
The subject of data set [2] is MO7e human leukemia cells.

As for `Cc1ccc(NC(=O)c2ccc(CN3CCN(C)CC3)cc2)cc1Nc1nccc(-c2cccnc2)n1` [Gleevec, imatinib mesylate], in data set [1], the “GM-CSF stimulated growth of MO7e human leukemia cells” value was “not affected”. Besides, in data set [2] (Kit ligand stimulation), the “Kit ligand-stimulated growth of MO7e human leukemia cells” value is on record as “inhibited”. In addition, in data set [2] (under Kit ligand-stimulated growth conditions), the “Apoptosis in MO7e human leukemia cells” value is “induces apoptosis”.
